Data set [1] has as its target T1, Aldo-keto reductase family 1 member C2 (Homo sapiens, UniProt P52895).
T1 sequence (P52895 whole entry): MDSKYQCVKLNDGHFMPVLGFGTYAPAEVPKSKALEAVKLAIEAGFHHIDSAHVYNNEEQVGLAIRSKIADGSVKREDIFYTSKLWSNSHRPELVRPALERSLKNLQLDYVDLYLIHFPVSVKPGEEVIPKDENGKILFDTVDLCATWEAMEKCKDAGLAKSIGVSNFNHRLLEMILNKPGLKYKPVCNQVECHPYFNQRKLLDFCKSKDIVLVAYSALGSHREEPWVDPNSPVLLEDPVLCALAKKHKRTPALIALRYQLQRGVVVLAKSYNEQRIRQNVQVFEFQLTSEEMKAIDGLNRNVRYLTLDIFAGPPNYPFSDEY
In words: Drug metabolism in human recombinant AKR1C2 expressing HEK293 cells treated with 20 uM boceprevir assessed as 100 uM diazepam-mediated inhibition of AKR1C2-mediated metabolite formation after 120 mins in presence of NADPH by LC-MS/MS/FSA method. In kind it is ADME, cell-based. Set-up: interact cpd dose 100 uM. Conditions: hek293, 2 h.

Data set [2] concerns the target T2, Aldo-keto reductase family 1 member C3 (Homo sapiens, UniProt P42330).
T2 sequence (P42330 whole entry): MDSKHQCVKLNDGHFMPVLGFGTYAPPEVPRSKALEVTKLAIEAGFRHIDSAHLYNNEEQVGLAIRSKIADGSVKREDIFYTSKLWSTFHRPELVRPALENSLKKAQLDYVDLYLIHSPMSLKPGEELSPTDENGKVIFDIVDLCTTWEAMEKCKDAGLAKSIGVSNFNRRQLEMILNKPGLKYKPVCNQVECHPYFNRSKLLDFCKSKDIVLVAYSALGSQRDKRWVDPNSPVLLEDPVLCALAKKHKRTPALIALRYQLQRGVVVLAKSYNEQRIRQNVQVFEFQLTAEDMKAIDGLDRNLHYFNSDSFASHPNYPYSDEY
Briefly: Drug metabolism in human recombinant […] HEK293 cells treated with 20 uM boceprevir assessed as 100 uM diazepam-mediated inhibition of AKR1C3-mediated metabolite formation after 120 mins in presence of NADPH by LC-MS/MS/FSA method. It counts as ADME, cell-based. Set-up: interact cpd dose 100 uM. Conditions: hek293, 2 h.

Data set [3] has as its target T2, Aldo-keto reductase family 1 member C3. In words: Drug metabolism in human recombinant […] HEK293 cells treated with 20 uM boceprevir assessed as 1 mM ibuprofen-mediated inhibition of AKR1C3-mediated metabolite formation after 120 mins in presence of NADPH by LC-MS/MS/FSA method. It counts as ADME, cell-based. Set-up: interact cpd dose 1 mM. Conditions: hek293, 2 h.

The nature of data set [4]: Drug metabolism in human liver mitochondria treated with 20 uM assessed as compound formation in presence of NADPH generating system by LC-MS/MS/FSA method. It counts as ADME.
Data set [5] concerns Liver cytosol. Briefly: Drug metabolism in human liver cytosol assessed as (1R,2S,5S)-N-((2R,3R)-4-amino-1-cyclobutyl-3-hydroxy-4-oxobutan-2-yl)-3-((S)-2-(3-tert-butylureido)-3,3-dimethylbutanoyl)-6,6-dimethyl-3-azabicyclo[3.1.0]hexane-2-carboxamide formation per mg protein after 60 mins by LC-MS/MS/FSA method. In kind it is ADME, tissue-based. Conditions: 1 h.
Data set [6] deals with Liver cytosol. Briefly: Drug metabolism in human liver cytosol at 20 uM assessed as (1R,2S,5S)-N-((2S,3R)-4-amino-1-cyclobutyl-3-hydroxy-4-oxobutan-2-yl)-3-((S)-2-(3-tert-butylureido)-3,3-dimethylbutanoyl)-6,6-dimethyl-3-azabicyclo[3.1.0]hexane-2-carboxamide formation at 20 uM after 60 mins in presence of AKR inhibitor ibuprofen by LC-MS/MS/FSA method. It counts as ADME. The settings on record: 1 h.

Data set [7] concerns Liver cytosol. Briefly: Drug metabolism in human liver cytosol at 20 uM assessed as (1R,2S,5S)-N-((2S,3R)-4-amino-1-cyclobutyl-3-hydroxy-4-oxobutan-2-yl)-3-((S)-2-(3-tert-butylureido)-3,3-dimethylbutanoyl)-6,6-dimethyl-3-azabicyclo[3.1.0]hexane-2-carboxamide formation in presence of BNPP by LC-MS/MS/FSA method. In kind it is ADME.
The target of data set [8] is T2, Aldo-keto reductase family 1 member C3. Briefly: Activity of human recombinant AKR1C3 expressed in HEK293 cells assessed as (1R,2S,5S)-N-((2S,3R)-4-amino-1-cyclobutyl-3-hydroxy-4-oxobutan-2-yl)-3-((S)-2-(3-tert-butylureido)-3,3-dimethylbutanoyl)-6,6-dimethyl-3-azabicyclo[3.1.0]hexane-2-carboxamide formation per mg protein after 120 mins in presence of NADPH by LC-MS/MS/FSA method. Conditions: hek293, 2 h. In kind it is ADME, cell-based.

The nature of data set [9]: Drug excretion in human feces. In kind it is ADME. Also on record: dosed compound name [14C]boceprevir.
Data set [10] can be described thus: Drug metabolism in human liver S9 fraction at 20 uM assessed as (1R,2S,5S)-N-((2S,3R)-4-amino-1-cyclobutyl-3-hydroxy-4-oxobutan-2-yl)-3-((S)-2-(3-tert-butylureido)-3,3-dimethylbutanoyl)-6,6-dimethyl-3-azabicyclo[3.1.0]hexane-2-carboxamide formation in presence of flufenamic acid by LC-MS/MS/FSA method. In kind it is ADME, subcellular. Conditions: s9, 20 µM.
Data set [11] in a line: Drug metabolism in human liver S9 fraction at 20 uM assessed as (1R,2S,5S)-N-((2S,3R)-4-amino-1-cyclobutyl-3-hydroxy-4-oxobutan-2-yl)-3-((S)-2-(3-tert-butylureido)-3,3-dimethylbutanoyl)-6,6-dimethyl-3-azabicyclo[3.1.0]hexane-2-carboxamide formation in presence of mefenamic acid by LC-MS/MS/FSA method. In kind it is ADME, subcellular. Conditions: s9, 20 µM.
Data set [12] deals with Liver cytosol. In words: Drug metabolism in human liver cytosol at 20 uM assessed as (1R,2S,5S)-N-((2S,3R)-4-amino-1-cyclobutyl-3-hydroxy-4-oxobutan-2-yl)-3-((S)-2-(3-tert-butylureido)-3,3-dimethylbutanoyl)-6,6-dimethyl-3-azabicyclo[3.1.0]hexane-2-carboxamide formation in presence of quercetin by LC-MS/MS/FSA method. In kind it is ADME.
Data set [13] concerns the target T1, Aldo-keto reductase family 1 member C2. In words: Activity of human recombinant AKR1C2 expressed in HEK293 cells assessed as (1R,2S,5S)-N-((2R,3R)-4-amino-1-cyclobutyl-3-hydroxy-4-oxobutan-2-yl)-3-((S)-2-(3-tert-butylureido)-3,3-dimethylbutanoyl)-6,6-dimethyl-3-azabicyclo[3.1.0]hexane-2-carboxamide formation at 20 uM after 120 mins in presence of NADPH by LC-MS/MS/FSA method. In kind it is ADME, cell-based. The settings on record: hek293, 2 h.

Experimental findings from ChEMBL document CHEMBL3526141, “Characterization of human liver enzymes involved in the biotransformation of boceprevir, a hepatitis C virus protease inhibitor” (Drug Metab Dispos, 2011) are described below.

Molecules are shown by their SMILES.

Take `CC(C)(C)NC(=O)N[C@H](C(=O)N1C[C@H]2[C@@H]([C@H]1C(=O)N[C@@H](CC1CCC1)[C@@H](O)C(N)=O)C2(C)C)C(C)(C)C`: the “inhibition (INH)” value in data set [1] is on record as above 89%; in data set [2] it was 80%; in [3] it was 55%. Further, the Compound recovery in data set [4] is 7%.
For orientation: Vmax means the rate approached at saturating substrate. For `CC(C)(C)NC(=O)N[C@H](C(=O)N1C[C@H]2[C@@H]([C@H]1C(=O)N[C@H](CC1CCC1)C(=O)C(N)=O)C2(C)C)C(C)(C)C`, the Vmax with Liver cytosol [5] is on record as 0.846 pmol/min.
As to `CC(C)(C)NC(=O)N[C@H](C(=O)N1C[C@H]2[C@@H]([C@H]1C(=O)NC(CC1CCC1)C(=O)C(N)=O)C2(C)C)C(C)(C)C` (stereo partly drawn) [BOCEPREVIR], the Compound recovery entry is “metabolite_not_detected” with Liver cytosol [6]; “metabolite_not_detected” in the data set with Liver cytosol [7]; “metabolite_not_detected” in [10]; “metabolite_not_detected” in data set [11]; “metabolite_not_detected” in the data set with Liver cytosol [12]; “metabolite_detected” in [13]. In addition, the Vmax in [8] is recorded as 639 pmol/min. Further, the Radiolabel recovery in data set [9] was 79%.
